{
  "source": "patent US7517532B2",
  "about": "“Dihydroxypyridopyrazine-1,6-dione compounds useful as HIV integrase inhibitors” (Merck & Co., Inc., priority 2002, dated 2009)",
  "data": [
    {"system": "HIV", "test": "Assay for inhibition of HIV replication (acute HIV infection of T-lymphoid cells)", "assay_type": "cell-based", "conditions": "Human immunodeficiency virus 1, T-lymphoid", "protocol": "Assay for Inhibition of HIV Replication\nAssays for the inhibition of acute HIV infection of T-lymphoid cells were conducted in accordance with Vacca, J. P. et al., Proc. Natl. Acad. Sci. USA 1994, 91: 4096.", "units": {"IC95": "nM"}, "values": [
      {"molecule": "CCOC[C@@H]1[C@@H]2[C@H]1n1c(c(O)c(O)cc1=O)C(=O)N2Cc1ccc(F)cc1", "note": "(racemic) [Example 42, (±)-1-(Ethoxymethyl)-2-(4-fluorobenzyl)-4,5-dihydroxy-1,1a,2,8a-tetrahydrocyclo-propa[e]pyrido[1,2-a]pyrazine-3,7-dione]", "IC95": "< 1000"},
      {"molecule": "CCCOC[C@@H]1[C@@H]2[C@H]1n1c(c(O)c(O)cc1=O)C(=O)N2Cc1ccc(F)cc1", "note": "(racemic) [Example 43, (±)-1-(n-Propoxymethyl)-2-(4-fluorobenzyl)-4,5-dihydroxy-1,1a,2,8a-tetrahydrocyclo-propa[e]pyrido[1,2-a]pyrazine-3,7-dione]", "IC95": "< 1000"},
      {"molecule": "O=C1c2c(O)c(O)cc(=O)n2CCN1Cc1ccccc1", "note": "[Example 1, 2-Benzyl-8,9-dihydroxy-3,4-dihydro-2H-pyrido[1,2-a]pyrazine-1,6-dione]", "IC95": "< 5000"},
      {"molecule": "Cc1c(O)c(O)c2n(c1=O)CCN(Cc1ccc(F)cc1)C2=O", "note": "[Example 3, 2-(4-Fluorobenzyl)-8,9-dihydroxy-7-methyl-3,4-dihydro-2H-pyrido[1,2-a]pyrazine-1,6-dione]", "IC95": "< 5000"},
      {"molecule": "O=C1c2c(O)c(O)c(Br)c(=O)n2CCN1Cc1ccc(F)cc1", "note": "[Example 4, 2-(4-Fluorobenzyl)-8,9-dihydroxy-7-bromo-3,4-dihydro-2H-pyrido[1,2-a]pyrazine-1,6-dione]", "IC95": "< 5000"},
      {"molecule": "O=C1c2c(O)c(O)c(I)c(=O)n2CCN1Cc1ccc(F)cc1", "note": "[Example 5, 2-(4-Fluorobenzyl)-8,9-dihydroxy-7-iodo-3,4-dihydro-2H-pyrido[1,2-a]pyrazine-1,6-dione]", "IC95": "< 5000"},
      {"molecule": "O=C1c2c(O)c(O)cc(=O)n2CCN1Cc1ccc(Cl)cc1", "note": "[Example 7, 2-(4-Chlorobenzyl)-8,9-dihydroxy-3,4-dihydro-2H-pyrido[1,2-a]pyrazine-1,6-dione]", "IC95": "< 5000"},
      {"molecule": "CN(C)Cc1c(O)c(O)c2n(c1=O)CCN(Cc1ccc(F)cc1)C2=O", "note": "[Example 13, 2-(4-Fluorobenzyl)-8,9-dihydroxy-7-[(dimethylamino)methyl]-3,4-dihydro-2H-pyrido[1,2-a]pyrazine-1,6-dione]", "IC95": "< 5000"},
      {"molecule": "CC1CN(Cc2ccc(F)cc2)C(=O)c2c(O)c(O)cc(=O)n21", "note": "(stereo not drawn) [Example 16, 2-(4-Fluorobenzyl)-8,9-dihydroxy-4-methyl-3,4-dihydro-2H-pyrido[1,2-a]pyrazine-1,6-dione]", "IC95": "< 5000"},
      {"molecule": "CC1(C)CN(Cc2ccc(F)cc2)C(=O)c2c(O)c(O)cc(=O)n21", "note": "[Example 17, 2-(4-Fluorobenzyl)-8,9-dihydroxy4,4dimethyl-3,4-dihydro-2H-pyrido[1,2-a]pyrazine-1,6-dione]", "IC95": "< 5000"},
      {"molecule": "CC1Cn2c(c(O)c(O)cc2=O)C(=O)N1Cc1ccc(F)cc1", "note": "(stereo not drawn) [Example 18, 2-(4-Fluorobenzyl)-8,9-dihydroxy-3-methyl-3,4-dihydro-2H-pyrido[1,2-a]pyrazine-1,6-dione]", "IC95": "< 5000"},
      {"molecule": "O=c1c2c(O)c(O)c(CN3CCCCC3)c(=O)n2ccn1Cc1ccc(F)cc1", "note": "[Example 25, 2-(4-Fluorobenzyl)-8,9-dihydroxy-7-(piperidin-1-ylmethyl)-2H-pyrido[1,2-a]pyrazine-1,6-dione]", "IC95": "< 1000"},
      {"molecule": "CN1CCN(Cc2c(O)c(O)c3c(=O)n(Cc4ccc(F)cc4)ccn3c2=O)CC1=O", "note": "[Example 27, 2-(4-Fluorobenzyl)-8,9-dihydroxy-7-[(4-methyl-3-oxopiperazin-1-yl)methyl]-2H-pyrido[1,2-a]pyrazine-1,6-dione]", "IC95": "< 1000"},
      {"molecule": "O=c1c2c(O)c(O)c(CN3CCOCC3)c(=O)n2ccn1Cc1ccc(F)cc1", "note": "[Example 28, 2-(4-Fluorobenzyl)-8,9-dihydroxy-7-[(morpholin4yl)methyl]-2H-pyrido[1,2-a]pyrazine-1,6-dione]", "IC95": "< 1000"},
      {"molecule": "O=c1c2c(O)c(O)c(CN3CCSCC3)c(=O)n2ccn1Cc1ccc(F)cc1", "note": "[Example 29, 2-(4-Fluorobenzyl)-8,9-dihydroxy-7-[(thiomorpholin-4-yl)methyl]-2H-pyrido[1,2-a]pyrazine-1,6-dione]", "IC95": "< 1000"},
      {"molecule": "CSc1cc(F)ccc1Cn1ccn2c(=O)cc(O)c(O)c2c1=O", "note": "[Example 30, 2-[4-Fluoro-2-(methylthio)benzyl)-8,9-dihydroxy-2H-pyrido[1,2-a]pyrazine-1,6-dione]", "IC95": "< 1000"},
      {"molecule": "CC(=O)N1CCCC(Cc2c(O)c(O)c3n(c2=O)CCN(Cc2ccc(F)cc2)C3=O)C1", "note": "(stereo not drawn) [Example 34, 7-[(1-Acetylpiperidin-3-yl)methyl]-2-(4-fluorobenzyl)-8,9-dihydroxy-3,4-dihydro-2H-pyrido[1,2-a]pyrazine-1,6-dione]", "IC95": "< 1000"},
      {"molecule": "CC(=O)N1CCCCC1Cc1c(O)c(O)c2n(c1=O)CCN(Cc1ccc(F)cc1)C2=O", "note": "(stereo not drawn) [Example 35, 7-[(1-Acetylpiperidin-2-yl)methyl]-2-(4-fluorobenzyl)-8,9-dihydroxy-3,4-dihydro-2H-pyrido[1,2-a]pyrazine-1,6-dione]", "IC95": "< 1000"}
    ]}
  ]
}
